In US20110152088A1, “Herbicidal Composition Comprising Flufenacet” (BAYER CROPSCIENCE AG, priority 2009, published 2011):

Assays:
STEME = test: Greenhouse trial: resistant biotypes following PE application (test method 9); type: in vivo, Stellaria media; settings: g of AS/ha: (A) 90, (B) 1200, (C) 140, (A)+(B)+(C) 90 + 1200 + 140, iodosulfuron 10; for activity STEME resistant / activity STEME sensitive: PE; for activity STEME resistant: resistant biotype; for activity STEME sensitive: sensitive biotype
Experimental: (§1) In the standard design of the test, seeds of various broad-leaved weed and weed grass biotypes (origins) were sown in a 8-13 cm diameter pot filled with natural soil of a standard field soil (loamy silt; non-sterile) and covered with a covering soil layer of about 1 cm. The pots were then cultivated in a greenhouse (12-16 h of light, temperature day 20-22° C., night 15-18° C.) until the time of application. The pots were treated on a laboratory track sprayer with spray liquors comprising the compositions according to the invention, mixtures of the prior art or components used individually. Application of the active compounds or active compound combinations formulated as WG, WP, EC or otherwise was carried out at the appropriate growth stages of the plants. The application rate for the spray application was 100-600 l of water/ha. After the treatment, the plants were returned to the greenhouses.
(§2) About 3 weeks after the application, the soil action or/and foliar action was assessed visually according to a scale of 0-100% in comparison to an untreated comparative group: 0%=no noticeable effect compared to the untreated comparative group; 100%=full effect compared to the untreated comparative group.
(§3) (notes: the term “seeds” also includes vegetative propagation forms such as, for example, rhizome pieces; abbreviations used: h light=hours of illumination, g of AS/ha=gram of active substance per hectare, I/ha=liter per hectare, S=sensitive, R=resistant) • 1. Pre-emergence action against weeds: seeds of various broad-leaved weed and weed grass biotypes (origins) were sown in a 8-13 cm diameter pot filled with natural soil of a standard field soil (loamy silt; non-sterile) and covered with a covering soil layer of about 1 cm. The pots were then cultivated in a greenhouse (12-16 h of light, temperature day 20-22° C., night 15-18° C.) until the time of application. The pots were treated at the BBCH stage 00-10 of the seeds/plants on a laboratory track sprayer with spray liquors comprising the compositions according to the invention, mixtures or components used individually, as WG, WP, EC or other formulations. The application rate for the spray application was 100-600 l of water/ha. After the treatment, the plants were returned to the greenhouses and, when required, treated with fertilizer and watered. • 2. Post-emergence action against weeds: seeds of various broad-leaved weed and weed grass biotypes (origins) were sown in a 8-13 cm diameter pot filled with natural soil of a standard field soil (loamy silt; non-sterile) and covered with a covering soil layer of about 1 cm. The pots were then cultivated in a greenhouse (12-16 h of light, temperature day 20-22° C., night 15-18° C.) until the time of application. The pots were treated at various BBCH stages between 11-25 of the seeds/plants, i.e. generally between two to three weeks after the start of the cultivation, on a laboratory track sprayer with spray liquors comprising the compositions according to the invention, mixtures or components used individually, as WG, WP, EC or other formulations. The application rate for the spray application was 100-600 l of water/ha. After the treatment, the plants were returned to the greenhouses and, when required, treated with fertilizer and watered. • 3. Pre-emergence action against weeds with and without incorporation of active compound: seeds of various broad-leaved weed and weed grass biotypes (origins) were sown in a 8-13 cm diameter pot filled with natural soil of a standard field soil (loamy silt; non-sterile). […]

LOLSS = test: as above; type: in vivo, Lolium species; settings: PE, g of AS/ha: (A) 90, (B) 1200, (C) 140, (A)+(B)+(C) 90 + 1200 + 140, iodosulfuron 10; for activity LOLSS resistant: resistant biotype; for activity LOLSS sensitive: sensitive biotype
Experimental: as §1, §2, §3

AVEFA [1] = test: Greenhouse trial: PE application vs application 7 days prior to sowing (test method 6); type: in vivo, Avena fatua
Experimental: as §1, §2, §3

APESV [2] = test: Greenhouse trial: PO application (test methods 2 and 5); type: in vivo, Apera Spica-venti; settings: g of AS/ha: (A) 120, (B) 1600, (C) 140, (A)+(B)+(C) 120 + 1600 + 140
Experimental: as §1, §2
(§4) (notes: the term “seeds” also includes vegetative propagation forms such as, for example, rhizome pieces; abbreviations used: h light=hours of illumination, g of AS/ha=gram of active substance per hectare, I/ha=liter per hectare, S=sensitive, R=resistant) • 1. Pre-emergence action against weeds: seeds of various broad-leaved weed and weed grass biotypes (origins) were sown in a 8-13 cm diameter pot filled with natural soil of a standard field soil (loamy silt; non-sterile) and covered with a covering soil layer of about 1 cm. The pots were then cultivated in a greenhouse (12-16 h of light, temperature day 20-22° C., night 15-18° C.) until the time of application. […]

MATCH [3] = test: Greenhouse trial: different soil types (test method 8); type: in vivo, Matricaria chamomilla; settings: g of AS/ha: (A) 120, (B) 1200, (C) 140, (A)+(B)+(C) 120 + 1200 + 140
Experimental: as §1, §2, §3

MATCH [4] = test: Greenhouse trial: different sowing depths on PE application (test method 10); type: in vivo, Matricaria chamomilla; settings: g of AS/ha: (A) 90, (B) 1200, (C) 140, (A)+(B)+(C) 90 + 1200 + 140; for activity MATCH 5 mm: sowing depth 5 mm; for activity MATCH 20 mm: sowing depth 20 mm
Experimental: as §1, §2, §3

LOLPE [5] = test: Greenhouse trial: PE application vs application 7 days prior to sowing (test method 6); type: in vivo, Lolium perenne
Experimental: as §1, §2, §3

LOLPE [6] = test: Greenhouse trial: different soil types (test method 8); type: in vivo, Lolium perenne; settings: g of AS/ha: (A) 120, (B) 1200, (C) 90, (A)+(B)+(C) 120 + 1200 + 90
Experimental: as §1, §2, §3

POAAN [7] = test: Greenhouse trial: PO application (test methods 2 and 5); type: in vivo, Poa annua; settings: g of AS/ha: (A) 120, (B) 1600, (C) 140, (A)+(B)+(C) 120 + 1600 + 140
Experimental: as §1, §2, §4

MATCH [8] = test: Greenhouse trial: PE application with different irrigation variants (test method 7); type: in vivo, Matricaria chamomilla; settings: g of AS/ha: (A) 120, (B) 1200, (C) 140, (A)+(B)+(C) 120 + 1200 + 140
Experimental: as §1, §2, §3

POAAN [9] = test: Greenhouse trial: PE soil application vs incorporation into the soil (test methods 1, 3 and 4); type: in vivo, Poa annua; settings: g of AS/ha: (A) 120, (B) 1200, (C) 140, (A)+(B)+(C) 120 + 1200 + 140
Experimental: as §1, §2, §3

LOLPE [10] = test: Greenhouse trial: PE application with different irrigation variants (test method 7); type: in vivo, Lolium perenne; settings: g of AS/ha: (A) 120, (B) 1200, (C) 140, (A)+(B)+(C) 120 + 1200 + 140
Experimental: as §1, §2, §3

AVEFA [11] = test: as above; type: in vivo, Avena fatua; settings: g of AS/ha: (A) 120, (B) 1200, (C) 140, (A)+(B)+(C) 120 + 1200 + 140
Experimental: as §1, §2, §3

APESV [12] = test: Greenhouse trial: different sowing depths on PE application (test method 10); type: in vivo, Apera Spica-venti; settings: g of AS/ha: (A) 90, (B) 1200, (C) 140, (A)+(B)+(C) 90 + 1200 + 140; for activity APESV 5 mm: sowing depth 5 mm; for activity APESV 20 mm: sowing depth 20 mm
Experimental: as §1, §2, §3

[13] = PE application, g of AS/ha: (A) 90, (B) 1200, (C) 140, mixture 90 + 1200 + 140
[14] = application 7 days prior to sowing, g of AS/ha: (A) 90, (B) 1200, (C) 140, (A)+(B)+(C) 90 + 1200 + 140

COc1nc(C)nc(NC(=O)NS(=O)(=O)c2cc(I)ccc2C(=O)O)n1 [iodosulfuron]
activity STEME resistant (STEME): 40% | activity STEME sensitive (STEME): 90% | activity LOLSS resistant (LOLSS): 50% | activity LOLSS sensitive (LOLSS): 98%

CCCN(CCC)C(=O)SCc1ccccc1 [(B) prosulfocarb, S-(phenylmethyl) dipropylcarbamothioate]
activity AVEFA (AVEFA [1]; [13]): 80% | activity AVEFA (AVEFA [1]; [14]): 10% | activity APESV (APESV [2]): 20% | activity MATCH IU soil (MATCH [3]): 10% | activity MATCH IU/EC73 soil (MATCH [3]): 0% | activity MATCH 5 mm (MATCH [4]): 0% | activity MATCH 20 mm (MATCH [4]): 0% | activity LOLPE (LOLPE [5]; [13]): 80% | activity LOLPE (LOLPE [5]; [14]): 0% | activity LOLPE IU soil (LOLPE [6]): 0% | Difference of the soil types Δ^D, LOLPE (LOLPE [6]; IU/EC73 soil vs IU soil): Δ^D + 0% | activity LOLPE IU/EC73 soil (LOLPE [6]): 0% | activity POAAN (POAAN [7]): 30% | activity STEME resistant (STEME): 40% | activity STEME sensitive (STEME): 70% | activity MATCH (MATCH [8]; Irrigation from above): 0% | activity MATCH (MATCH [8]; Irrigation from below): 0% | activity POAAN (POAAN [9]; Incorporation): 85% | activity POAAN (POAAN [9]; PE application): 35% | activity LOLPE (LOLPE [10]; Irrigation from above): 10% | activity LOLPE (LOLPE [10]; Irrigation from below): 5% | activity AVEFA (AVEFA [11]; Irrigation from above): 5% | activity AVEFA (AVEFA [11]; Irrigation from below): 10% | activity APESV 5 mm (APESV [12]): 50% | activity APESV 20 mm (APESV [12]): 20% | activity LOLSS resistant (LOLSS): 65% | activity LOLSS sensitive (LOLSS): 85%

CC(C)N(C(=O)COc1nnc(C(F)(F)F)s1)c1ccc(F)cc1 [(A) flufenacet, N-(4-fluorophenyl)-N-(1-methylethyl)-2-[[5-(trifluoromethyl)-1,3,4-thiadiazol-2-yl]oxy]acetamide]
activity AVEFA (AVEFA [1]; [13]): 80% | activity AVEFA (AVEFA [1]; [14]): 70% | activity APESV (APESV [2]): 60% | activity MATCH IU soil (MATCH [3]): 80% | activity MATCH IU/EC73 soil (MATCH [3]): 0% | activity MATCH 5 mm (MATCH [4]): 30% | activity MATCH 20 mm (MATCH [4]): 30% | activity LOLPE (LOLPE [5]; [13]): 90% | activity LOLPE (LOLPE [5]; [14]): 80% | activity LOLPE IU soil (LOLPE [6]): 89% | activity LOLPE IU/EC73 soil (LOLPE [6]): 0% | activity POAAN (POAAN [7]): 60% | activity STEME resistant (STEME): 0% | activity STEME sensitive (STEME): 0% | Difference Δ^D activity resistant to activity sensitive, STEME (STEME): Δ^D ± 0% | activity MATCH (MATCH [8]; Irrigation from above): 49% | activity MATCH (MATCH [8]; Irrigation from below): 35% | activity POAAN (POAAN [9]; Incorporation): 90% | activity POAAN (POAAN [9]; PE application): 70% | activity LOLPE (LOLPE [10]; Irrigation from above): 80% | activity LOLPE (LOLPE [10]; Irrigation from below): 78% | activity AVEFA (AVEFA [11]; Irrigation from above): 85% | activity AVEFA (AVEFA [11]; Irrigation from below): 50% | activity APESV 5 mm (APESV [12]): 65% | activity APESV 20 mm (APESV [12]): 70% | activity LOLSS resistant (LOLSS): 10% | activity LOLSS sensitive (LOLSS): 85%
